Source: US20260258064A1 (SIRONAX LTD., priority 2023, published 2026)
pIC50: −log10 of the molar value.

biological target: T1, SARM1 (50-724) (Homo sapiens, UniProt Q6SZW1); assay: SARM1 (50-724) enzymatic assay (LC-MS/MS); format: biochemical; conditions: Purified SARM1 (50-724) 2 nM, NMN as activator, NAD+ as substrate, 1 h at room temperature, read-out: IC50 (SARM1 inhibitory activity)
T1 construct: Purified SARM1 (50-724) with a final concentration of 2 nM was pre-incubated with a test compound
T1 sequence (Q6SZW1 50-724): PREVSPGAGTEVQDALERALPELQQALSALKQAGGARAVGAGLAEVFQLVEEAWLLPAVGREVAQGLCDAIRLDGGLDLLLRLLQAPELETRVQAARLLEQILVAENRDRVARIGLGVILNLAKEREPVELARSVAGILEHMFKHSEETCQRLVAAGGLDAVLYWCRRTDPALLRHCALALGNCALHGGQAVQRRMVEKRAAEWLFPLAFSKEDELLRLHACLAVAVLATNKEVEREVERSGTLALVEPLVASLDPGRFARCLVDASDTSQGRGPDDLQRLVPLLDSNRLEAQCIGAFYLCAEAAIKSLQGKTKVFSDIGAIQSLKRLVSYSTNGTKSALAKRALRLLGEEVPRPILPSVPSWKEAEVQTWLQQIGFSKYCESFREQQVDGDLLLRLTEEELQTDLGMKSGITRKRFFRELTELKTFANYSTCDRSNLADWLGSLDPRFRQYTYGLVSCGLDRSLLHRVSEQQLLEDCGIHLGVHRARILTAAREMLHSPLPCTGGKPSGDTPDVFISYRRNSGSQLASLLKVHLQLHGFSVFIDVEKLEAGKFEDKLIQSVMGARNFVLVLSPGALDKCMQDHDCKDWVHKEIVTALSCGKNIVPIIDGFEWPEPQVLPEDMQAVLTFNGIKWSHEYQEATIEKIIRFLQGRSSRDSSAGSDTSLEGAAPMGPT
Procedure, shortened: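 Reaction buffer was Dulbecco's PBS. Compound and 2 nM human SARM1 (50-724) were pre-incubated 15 min at room temperature, then […] NAD^+ and 200 µM NMN activator were added for 1 h at room temperature. Acetonitrile (70%) stop, LC-MS/MS read-out, IC50 values.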

pIC50	SMILES
≥ 7.00	COc1cc(-n2cnnc2-c2nc3cc(C(F)(F)F)ccc3[nH]2)c(OC(F)(F)F)cn1 [Compound 210, 2-(4-(2-methoxy-5-(trifluoromethoxy)pyridin-4-yl)-4H-1,2,4-triazol-3-yl)-5-(trifluoromethyl)-1H-benzo[d]imidazole]
≥ 7.00	FC(F)(F)c1ccc2[nH]c(-c3nncn3-c3cnccc3C(F)(F)F)c(-c3ccncc3)c2c1 [Compound 386, 3-(4-pyridyl)-5-(trifluoromethyl)-2-[4-[4-(trifluoromethyl)-3-pyridyl]-1,2,4-triazol-3-yl]-1H-indole]
≥ 7.00	Cn1cc(OC(F)(F)F)c(-n2cnnc2-c2nc3c(F)c(C4CC4)ccc3[nH]2)cc1=O [Compound 354, 4-(3-(5-cyclopropyl-4-fluoro-1H-benzo[d]imidazol-2-yl)-4H-1,2,4-triazol-4-yl)-1-methyl-5-(trifluoromethoxy)pyridin-2(1H)-one]
≥ 7.00	CN1CCN(c2ccc(Cl)c(-n3cnnc3-c3nc4cc(C(F)(F)F)ccc4[nH]3)n2)CC1=O [Compound 208, 4-(5-chloro-6-(3-(5-(trifluoromethyl)-1H-benzo[d]imidazol-2-yl)-4H-1,2,4-triazol-4-yl)pyridin-2-yl)-1-methylpiperazin-2-one]
≥ 7.00	OCCOc1cc(-n2cnnc2-c2nc3cc(C(F)(F)F)ccc3[nH]2)c(OC(F)(F)F)cn1 [Compound 241, 2-((5-(trifluoromethoxy)-4-(3-(5-(trifluoromethyl)-1H-benzo[d]imidazol-2-yl)-4H-1,2,4-triazol-4-yl)pyridin-2-yl)oxy)ethan-1-ol]
≥ 7.00	COc1ccc(Cl)c(-n2cnnc2-c2nc3cc(C(F)(F)F)ccc3[nH]2)n1 [Example 114]
≥ 7.00	FC(F)(F)c1ccc2[nH]c(-c3nncn3-c3ccccc3Cl)nc2c1 [Example 105]
≥ 7.00	FC(F)(Cl)Oc1cnccc1-n1cnnc1-c1nc2cc(C(F)(F)F)ccc2[nH]1 [Compound 215, 2-(4-(3-(chlorodifluoromethoxy)pyridin-4-yl)-4H-1,2,4-triazol-3-yl)-5-(trifluoromethyl)-1H-benzo[d]imidazole]
< 6.00	FC(F)C12CC(n3cnnc3-c3nc4cc(C(F)(F)F)ccc4[nH]3)(C1)C2 [Compound 214, 2-(4-(3-(difluoromethyl)bicyclo[1.1.1]pentan-1-yl)-4H-1,2,4-triazol-3-yl)-5-(trifluoromethyl)-1H-benzo[d]imidazole]
≥ 7.00	FC(F)(F)c1ccc2[nH]c(-c3nncn3-c3nnccc3C(F)(F)F)nc2c1 [Compound 429, 5-(trifluoromethyl)-2-(4-(4-(trifluoromethyl)pyridazin-3-yl)-4H-1,2,4-triazol-3-yl)-1H-benzo[d]imidazole]
6.30 to 7.00	CP(C)(=O)c1cc(F)c2[nH]c(-c3nncn3-c3cnccc3C(F)(F)F)nc2c1 [Compound 392, 5-dimethylphosphoryl-7-fluoro-2-[4-[4-(trifluoromethyl)-3-pyridyl]-1,2,4-triazol-3-yl]-1H-benzimidazole]
≥ 7.00	FC(F)(F)c1ccc2[nH]c(-c3nncn3-c3cccc(Cl)c3Cl)nc2c1 [Example 15, 2-[4-(2,3-dichlorophenyl)-1,2,4-triazol-3-yl]-5-(trifluoromethyl)-1H-benzimidazole]
≥ 7.00	Oc1ccc(Cl)c(-n2cnnc2-c2nc3cc(C(F)(F)F)ccc3[nH]2)n1 [Example 115]
≥ 7.00	Cn1c(-n2cnnc2-c2nc3cc(C(F)(F)F)ccc3[nH]2)c(C(F)(F)F)ccc1=O [Compound 284, 1-methyl-5-(trifluoromethyl)-6-(3-(5-(trifluoromethyl)-1H-benzo[d]imidazol-2-yl)-4H-1,2,4-triazol-4-yl)pyridin-2(1H)-one]
≥ 7.00	Cc1ccn(-c2cc(F)c3[nH]c(-c4nncn4-c4cnccc4C(F)(F)F)nc3c2)n1 [Compound 401, 7-fluoro-5-(3-methyl-1H-pyrazol-1-yl)-2-(4-(4-(trifluoromethyl)pyridin-3-yl)-4H-1,2,4-triazol-3-yl)-1H-benzo[d]imidazole]

Further lines, the compound ahead of its results:

SMILES	pIC50
Fc1cc(C2CC23CCOCC3)cc2nc(-c3nncn3-c3cnccc3C(F)(F)F)[nH]c12 (centres unmarked) [Compound 360, 7-fluoro-5-(6-oxaspiro[2.5]octan-2-yl)-2-[4-[4-(trifluoromethyl)-3-pyridyl]-1,2,4-triazol-3-yl]-1H-benzimidazole]	≥ 7.00
Cc1cc(-c2ccc3[nH]c(-c4nncn4-c4cccc(Cl)c4Cl)nc3c2)[nH]n1 [Example 51, 2-(4-(2,3-dichlorophenyl)-4H-1,2,4-triazol-3-yl)-5-(3-methyl-1H-pyrazol-5-yl)-1H-benzo[d]imidazole]	≥ 7.00
C[S+]([O-])c1ccc2[nH]c(-c3nncn3-c3cccc(Cl)c3Cl)nc2c1 (centres unmarked) [Compound 153, 2-(4-(2,3-dichlorophenyl)-4H-1,2,4-triazol-3-yl)-5-(methylsulfinyl)-1H-benzo[d]imidazole]	6.30 to 7.00
N#CC1(c2ccc3[nH]c(-c4nncn4-c4cccc(F)c4Cl)nc3c2)CC12CC2 (centres unmarked) [Compound 229, 1-(2-(4-(2-chloro-3-fluorophenyl)-4H-1,2,4-triazol-3-yl)-1H-benzo[d]imidazol-5-yl)spiro[2.2]pentane-1-carbonitrile]	≥ 7.00
O=S1(c2cc(F)c3[nH]c(-c4nncn4-c4cnccc4C(F)(F)F)nc3c2)=NCCC1 (centres unmarked) [Compound 424, 1-[7-fluoro-2-[4-[4-(trifluoromethyl)-3-pyridyl]-1,2,4-triazol-3-yl]-1H-benzimidazol-5-yl]-4,5-dihydro-3H-isothiazole 1-oxide]	< 6.00
Fc1cc(C2CC23CCOC3)cc2nc(-c3nncn3-c3cnccc3C(F)(F)F)[nH]c12 (centres unmarked) [Compound 414, 7-fluoro-5-(5-oxaspiro[2.4]heptan-2-yl)-2-[4-[4-(trifluoromethyl)-3-pyridyl]-1,2,4-triazol-3-yl]-1H-benzimidazole]	≥ 7.00
Cc1ccc2[nH]c(-c3ncnn3C3CCCC3)nc2c1 [Compound 10, 2-(2-cyclopentyl-1,2,4-triazol-3-yl)-5-methyl-1H-benzimidazole]	< 6.00
OC1CN(Cc2nnc(-c3nc4cc(C(F)(F)F)ccc4[nH]3)n2-c2cccc(Cl)c2Cl)C1 [Compound 144, 1-((4-(2,3-dichlorophenyl)-5-(5-(trifluoromethyl)-1H-benzo[d]imidazol-2-yl)-4H-1,2,4-triazol-3-yl)methyl)azetidin-3-ol]	≥ 7.00
Fc1cccc(-n2c(Cn3cccn3)nnc2-c2nc3cc(C(F)(F)F)ccc3[nH]2)c1Cl [Compound 381, 2-(5-((1H-pyrazol-1-yl)methyl)-4-(2-chloro-3-fluorophenyl)-4H-1,2,4-triazol-3-yl)-5-(trifluoromethyl)-1H-benzo[d]imidazole]	6.30 to 7.00
OC1CCN(c2cc(F)c3[nH]c(-c4nncn4-c4cnccc4C(F)(F)F)nc3c2)C1 (centres unmarked) [Compound 447, 1-(4-fluoro-2-(4-(4-(trifluoromethyl)pyridin-3-yl)-4H-1,2,4-triazol-3-yl)-1H-benzo[d]imidazol-6-yl)pyrrolidin-3-ol]	6.00 to 6.30
Cc1ccc2[nH]c(-n3c(C4CCCC4)n[nH]c3=O)nc2c1 [Compound 12, 5-cyclopentyl-4-(5-methyl-1H-benzo[d]imidazol-2-yl)-2,4-dihydro-3H-1,2,4-triazol-3-one]	< 6.00
CNC(=O)CCc1nnc(-c2nc3cc(C(F)(F)F)ccc3[nH]2)n1-c1cccc(Cl)c1Cl [Compound 156, 3-(4-(2,3-dichlorophenyl)-5-(5-(trifluoromethyl)-1H-benzo[d]imidazol-2-yl)-4H-1,2,4-triazol-3-yl)-N-methylpropanamide]	≥ 7.00
CC1(C)CC1c1cc(F)c2[nH]c(-c3nncn3-c3cnccc3C(F)(F)F)nc2c1 (centres unmarked) [Compound 347, 5-(2,2-dimethylcyclopropyl)-7-fluoro-2-(4-(4-(trifluoromethyl)pyridin-3-yl)-4H-1,2,4-triazol-3-yl)-1H-benzo[d]imidazole]	≥ 7.00
CC(c1ccncc1)c1cc(F)c2[nH]c(-c3nncn3-c3cccc(F)c3Br)nc2c1 (centres unmarked) [Compound 462, 2-(4-(2-bromo-3-fluorophenyl)-4H-1,2,4-triazol-3-yl)-7-fluoro-5-(1-(pyridin-4-yl)ethyl)-1H-benzo[d]imidazole]	≥ 7.00
Fc1cc(C(F)(F)F)cc2nc(-c3nnccc3-c3cnccc3C(F)(F)F)[nH]c12 [Compound 303, 7-Fluoro-5-(trifluoromethyl)-2-(4-(4-(trifluoromethyl)pyridin-3-yl)pyridazin-3-yl)-1H-benzo[d]imidazole]	≥ 7.00
OCc1nnc(-c2nc3cc(C(F)(F)F)ccc3[nH]2)n1-c1cccc(Cl)c1Cl [Example 90]	≥ 7.00
CS(=O)(=O)Cc1nnc(-c2nc3cc(C(F)(F)F)cc(F)c3[nH]2)n1-c1cccc(Cl)c1Cl (single isomer, unassigned) [Compound 186]	6.30 to 7.00
